Target: T1, VPAC1 (Homo sapiens, UniProt P32241)
T1 sequence (P32241 31-457): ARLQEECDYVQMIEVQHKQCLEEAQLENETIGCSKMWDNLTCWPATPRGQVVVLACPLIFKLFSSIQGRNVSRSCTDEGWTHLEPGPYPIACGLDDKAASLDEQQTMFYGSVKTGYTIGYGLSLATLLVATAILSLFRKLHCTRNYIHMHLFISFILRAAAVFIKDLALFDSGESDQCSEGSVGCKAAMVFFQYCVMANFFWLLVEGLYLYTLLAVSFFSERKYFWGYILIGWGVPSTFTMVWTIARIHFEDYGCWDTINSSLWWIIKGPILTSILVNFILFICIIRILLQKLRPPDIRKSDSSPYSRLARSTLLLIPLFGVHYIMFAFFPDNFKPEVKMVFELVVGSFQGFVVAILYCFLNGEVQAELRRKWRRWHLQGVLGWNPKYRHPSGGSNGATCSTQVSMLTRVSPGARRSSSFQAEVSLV
Assay: Cyclic AMP SPA, cells expressing VPAC1
Type: cell-based

## PACAP-27
  agonist activity on VPAC1 (in words): potent agonist
